Experimental data as given in patent US12365687B2 (Hoffmann-La Roche Inc., priority 2021, dated 2025).

What was measured:
[1] = target: human GABAA α2β2γ1 receptor (Homo sapiens (Human), UniProt P47869+Q8N1C3); assay: Radioligand binding assay for γ1-containing GABAA subtypes, [3H]RO7239181 competition (α2β2γ1)
[2] = target: α2β2γ1 GABAA receptor subtype (Homo sapiens (Human), UniProt P47869+Q8N1C3); assay: Two-electrode voltage clamp electrophysiology in Xenopus oocytes expressing GABAA receptors (modulation of GABA EC20 current); assay type: cell-based; settings: for Efficacy (GABA)%: % modulation of GABA EC20 = 100*(Fold increase-1), α2β2γ1 oocytes, compound at approx. 30-fold Ki; for Fold increase h-GABA-A α2β2γ1 oocyte @ 30-fold Ki: Xenopus oocytes expressing α2β2γ1, compound at approx. 30-fold its Ki α2β2γ1, GABA EC20 current
Procedure, shortened: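 Each concentration was tested on ≥3 oocytes held at −80 mV at room temperature, recorded 3-5 days post-injection. A control and a test response to EC20 GABA (1.5 min each) were superimposed and their point-by-point ratio taken. Peak ratio reported as % modulation of GABA EC20 = 100×(fold increase−1).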

[3] = target: human GABAA α1β3γ2 receptor (Homo sapiens (Human), UniProt P14867+P18507); assay: Radioligand binding assay for γ2-containing GABAA subtypes, [3H]Flumazenil competition (α1β3γ2); settings: for γ2/γ1 Selectivity Ratio: Ki α1β3γ2 (nM)/Ki α2β2γ1 (nM); for LogSel: Log[Ki α1β3γ2 (nM)/Ki α2β2γ1 (nM)]
[4] = target: human GABAA α5β2γ1 receptor (Homo sapiens (Human), UniProt P31644+Q8N1C3); assay: Radioligand binding assay for γ1-containing GABAA subtypes, [3H]RO7239181 competition (α5β2γ1)
[5] = Ki h-GABAA α2β2γ1, [3H]RO7239181 competition binding, human GABAA α2β2γ1
[6] = Ki h-GABAA α2β2γ1, displacement of [3H]RO7239181, membranes of HEK293F cells expressing human receptors, means of two determinations

With CO[C@@H]1CCN(C(=O)c2nc3n(n2)-c2ccc(Cl)c(Cl)c2C(c2c(F)cccc2F)=N[C@H]3C)C1 [Example 46, [(4S)-7,8-dichloro-6-(2,6-difluorophenyl)-4-methyl-4H-[1,2,4]triazolo[1,5-a][1,4]benzodiazepin-2-yl]-[(3R)-3-methoxypyrrolidin-1-yl]methanone] the Ki [1, 5] was 5.9 nM, the Ki [1, 6] was 5.91 nM and the “Efficacy (GABA)%” value [2] was 73%. For the same compound, the “Fold increase h-GABA-A α2β2γ1 oocyte @ 30-fold Ki” value [2] was 1.73, the Ki [3] was 867 nM and the “γ2/γ1 Selectivity Ratio” value [3] was 146.6. The LogSel [3] was 2.17 and the Ki [4] was 2.14 nM.
C[C@@H]1N=C(c2c(F)cccc2F)c2c(ccc(Cl)c2Cl)-n2nc(C(=O)N3CC[C@@H](O)C3)nc21 [Example 47, [(4S)-7,8-dichloro-6-(2,6-difluorophenyl)-4-methyl-4H-[1,2,4]triazolo[1,5-a][1,4]benzodiazepin-2-yl]-[(3R)-3-hydroxypyrrolidin-1-yl]methanone] was tested, and the Ki [1, 5] was 3.4 nM, the Ki [1, 6] was 3.43 nM and the “Efficacy (GABA)%” value [2] was 74%. The “Fold increase h-GABA-A α2β2γ1 oocyte @ 30-fold Ki” value [2] was 1.74, the Ki [3] was 1010 nM and the “γ2/γ1 Selectivity Ratio” value [3] was 294.7. It also gave a LogSel [3] of 2.47 and a Ki [4] of 1.44 nM.
With C[C@@H]1N=C(c2ncccc2F)c2c(ccc(Br)c2Cl)-n2nc(C(=O)N3CCC3)nc21 [Example 48, azetidin-1-yl-[(4S)-8-bromo-7-chloro-6-(3-fluoro-2-pyridyl)-4-methyl-4H-[1,2,4]triazolo[1,5-a][1,4]benzodiazepin-2-yl]methanone] the Ki [1, 5] was 18.6 nM, the Ki [1, 6] was 18.6 nM and the “Efficacy (GABA)%” value [2] was 94%. For the same compound, the “Fold increase h-GABA-A α2β2γ1 oocyte @ 30-fold Ki” value [2] was 1.94, the Ki [3] was 1310 nM and the “γ2/γ1 Selectivity Ratio” value [3] was 70.2. The LogSel [3] was 1.85 and the Ki [4] was 3.22 nM.
For C[C@@H]1N=C(c2c(F)cccc2F)c2c(ccc(Cl)c2Cl)-n2nc(C3CC3)nc21 [Example 49, (4S)-7,8-dichloro-2-cyclopropyl-6-(2,6-difluorophenyl)-4-methyl-4H-[1,2,4]triazolo[1,5-a][1,4]benzodiazepine], the Ki [1, 5] was 15.7 nM, the Ki [1, 6] was 15.7 nM and the “Efficacy (GABA)%” value [2] was 75%. For the same compound, the “Fold increase h-GABA-A α2β2γ1 oocyte @ 30-fold Ki” value [2] was 1.75, the Ki [3] was 619 nM and the “γ2/γ1 Selectivity Ratio” value [3] was 39.5. The LogSel [3] was 1.60 and the Ki [4] was 1.41 nM.
For C[C@@H]1N=C(c2c(F)cccc2F)c2c(ccc(Cl)c2Cl)-n2nc(N3CCCC3=O)nc21 [Example 50, 1-[(4S)-7,8-dichloro-6-(2,6-difluorophenyl)-4-methyl-4H-[1,2,4]triazolo[1,5-a][1,4]benzodiazepin-2-yl]pyrrolidin-2-one], the Ki [1, 5] was 4.5 nM, the Ki [1, 6] was 4.5 nM and the “Efficacy (GABA)%” value [2] was 60%. For the same compound, the “Fold increase h-GABA-A α2β2γ1 oocyte @ 30-fold Ki” value [2] was 1.60, the Ki [3] was 376 nM and the “γ2/γ1 Selectivity Ratio” value [3] was 83.5. It also gave a LogSel [3] of 1.92 and a Ki [4] of 0.89 nM.
In the case of C[C@@H]1N=C(c2c(F)cccc2F)c2c(ccc(Cl)c2Cl)-n2nc(N3CCS(=O)(=O)CC3)nc21 [Example 52, 4-[(4S)-7,8-dichloro-6-(2,6-difluorophenyl)-4-methyl-4H-[1,2,4]triazolo[1,5-a][1,4]benzodiazepin-2-yl]-1,4-thiazinane 1,1-dioxide], the Ki [1, 5] is reported as 12.4 nM, the Ki [1, 6] is reported as 12.4 nM and the “Efficacy (GABA)%” value [2] is reported as 41%. For the same compound, the “Fold increase h-GABA-A α2β2γ1 oocyte @ 30-fold Ki” value [2] was 1.41, the Ki [3] was 578 nM and the “γ2/γ1 Selectivity Ratio” value [3] was 46.6. It also gave a LogSel [3] of 1.67 and a Ki [4] of 1.26 nM.
With C[C@@H]1N=C(c2c(F)cccc2F)c2c(ccc(Cl)c2Cl)-n2nc(C#N)nc21 [Example 53, (4S)-7,8-dichloro-6-(2,6-difluorophenyl)-4-methyl-4H-[1,2,4]triazolo[1,5-a][1,4]benzodiazepine-2-carbonitrile] the Ki [1, 5] was 61.4 nM, the Ki [1, 6] was 61.4 nM and the “Efficacy (GABA)%” value [2] was 73%. The “Fold increase h-GABA-A α2β2γ1 oocyte @ 30-fold Ki” value [2] was 1.73, the Ki [3] was 2550 nM and the “γ2/γ1 Selectivity Ratio” value [3] was 41.5. The LogSel [3] was 1.62 and the Ki [4] was 1.65 nM.
For C[C@@H]1N=C(c2c(F)cccc2F)c2c(ccc(Cl)c2Cl)-n2nc(C(=O)NC3COC3)nc21 [Example 55, (4S)-7,8-dichloro-6-(2,6-difluorophenyl)-4-methyl-N-(oxetan-3-yl)-4H-[1,2,4]triazolo[1,5-a][1,4]benzodiazepine-2-carboxamide], the Ki [1, 5] was 5.4 nM, the Ki [1, 6] was 5.4 nM and the “Efficacy (GABA)%” value [2] was 58%. For the same compound, the “Fold increase h-GABA-A α2β2γ1 oocyte @ 30-fold Ki” value [2] was 1.58, the Ki [3] was 555 nM and the “γ2/γ1 Selectivity Ratio” value [3] was 102.8. For the same compound, the LogSel [3] was 2.01 and the Ki [4] was 1.15 nM.
With C[C@@H]1N=C(c2c(F)cccc2F)c2c(ccc(Cl)c2Cl)-n2nc(C(=O)NCC#N)nc21 [Example 56, (4S)-7,8-dichloro-N-(cyanomethyl)-6-(2,6-difluorophenyl)-4-methyl-4H-[1,2,4]triazolo[1,5-a][1,4]benzodiazepine-2-carboxamide] the Ki [1, 5] was 4.6 nM, the Ki [1, 6] was 4.63 nM and the “Efficacy (GABA)%” value [2] was 72%. For the same compound, the “Fold increase h-GABA-A α2β2γ1 oocyte @ 30-fold Ki” value [2] was 1.72, the Ki [3] was 432 nM and the “γ2/γ1 Selectivity Ratio” value [3] was 93.4. For the same compound, the LogSel [3] was 1.97 and the Ki [4] was 0.85 nM.
For C[C@@H]1N=C(c2c(F)cccc2F)c2c(ccc(Cl)c2Cl)-n2nc(NC(=O)N3CC(F)C3)nc21 [Example 57, 3-fluoro-N-[(4S)-7,8-dichloro-6-(2,6-difluorophenyl)-4-methyl-4H-[1,2,4]triazolo[1,5-a][1,4]benzodiazepin-2-yl]azetidine-1-carboxamide], the Ki [1, 5] was 17.8 nM, the Ki [1, 6] was 17.8 nM and the “Efficacy (GABA)%” value [2] was 76%. For the same compound, the “Fold increase h-GABA-A α2β2γ1 oocyte @ 30-fold Ki” value [2] was 1.76, the Ki [3] was 822 nM and the “γ2/γ1 Selectivity Ratio” value [3] was 46.2. It also gave a LogSel [3] of 1.67 and a Ki [4] of 1.84 nM.
C[C@@H]1N=C(c2c(F)cccc2F)c2c(ccc(Cl)c2Cl)-n2nc(C(=O)NCC(F)F)nc21 [Example 59, (4S)-7,8-dichloro-N-(2,2-difluoroethyl)-6-(2,6-difluorophenyl)-4-methyl-4H-[1,2,4]triazolo[1,5-a][1,4]benzodiazepine-2-carboxamide] was tested, and the Ki [1, 5] was 7 nM, the Ki [1, 6] was 7 nM and the “Efficacy (GABA)%” value [2] was 74%. For the same compound, the “Fold increase h-GABA-A α2β2γ1 oocyte @ 30-fold Ki” value [2] was 1.74, the Ki [3] was 640 nM and the “γ2/γ1 Selectivity Ratio” value [3] was 90.9. It also gave a LogSel [3] of 1.96 and a Ki [4] of 1.26 nM.
COC1CN(C(=O)Nc2nc3n(n2)-c2ccc(Cl)c(Cl)c2C(c2c(F)cccc2F)=N[C@H]3C)C1 [Example 60, 3-methoxy-N-[(4S)-7,8-dichloro-6-(2,6-difluorophenyl)-4-methyl-4H-[1,2,4]triazolo[1,5-a][1,4]benzodiazepin-2-yl]azetidine-1-carboxamide] was tested, and the Ki [1, 5] was 12.3 nM, the Ki [1, 6] was 12.3 nM and the “Efficacy (GABA)%” value [2] was 107%. For the same compound, the “Fold increase h-GABA-A α2β2γ1 oocyte @ 30-fold Ki” value [2] was 2.07, the Ki [3] was 602 nM and the “γ2/γ1 Selectivity Ratio” value [3] was 49.1. The LogSel [3] was 1.69 and the Ki [4] was 1.49 nM.
In the case of C[C@@H]1N=C(c2c(F)cccc2F)c2c(ccc(Cl)c2Cl)-n2nc(C(=O)NC3(C#N)CC3)nc21 [Example 61, (4S)-7,8-dichloro-N-(1-cyanocyclopropyl)-6-(2,6-difluorophenyl)-4-methyl-4H-[1,2,4]triazolo[1,5-a][1,4]benzodiazepine-2-carboxamide], the Ki [1, 5] is reported as 4.2 nM, the Ki [1, 6] is reported as 4.18 nM and the “Efficacy (GABA)%” value [2] is reported as 99%. The “Fold increase h-GABA-A α2β2γ1 oocyte @ 30-fold Ki” value [2] was 1.99, the Ki [3] was 585 nM and the “γ2/γ1 Selectivity Ratio” value [3] was 140.0. It also gave a LogSel [3] of 2.15 and a Ki [4] of 1.45 nM.
In the case of COC1CN(C(=O)c2nc3n(n2)-c2ccc(Cl)c(Cl)c2C(c2ncccc2F)=NC3)C1 [Example 62, [7,8-dichloro-6-(3-fluoro-2-pyridyl)-4H-[1,2,4]triazolo[1,5-a][1,4]benzodiazepin-2-yl]-(3-methoxyazetidin-1-yl)methanone], the Ki [1, 5] is reported as 9 nM, the Ki [1, 6] is reported as 9 nM and the “Efficacy (GABA)%” value [2] is reported as 93%. For the same compound, the “Fold increase h-GABA-A α2β2γ1 oocyte @ 30-fold Ki” value [2] was 1.93, the Ki [3] was 773 nM and the “γ2/γ1 Selectivity Ratio” value [3] was 85.7. The LogSel [3] was 1.93 and the Ki [4] was 3.7 nM.
In the case of C[C@H](O)CNC(=O)c1nc2n(n1)-c1ccc(Cl)c(Cl)c1C(c1c(F)cccc1F)=N[C@H]2C [Example 63, (4S)-7,8-dichloro-6-(2,6-difluorophenyl)-4-methyl-N-[(2S)-2-hydroxypropyl]-4H-[1,2,4]triazolo[1,5-a][1,4]benzodiazepine-2-carboxamide], the Ki [1, 5] is reported as 4.2 nM, the Ki [1, 6] is reported as 4.25 nM and the “Efficacy (GABA)%” value [2] is reported as 79%. The “Fold increase h-GABA-A α2β2γ1 oocyte @ 30-fold Ki” value [2] was 1.79, the Ki [3] was 606 nM and the “γ2/γ1 Selectivity Ratio” value [3] was 142.6. It also gave a LogSel [3] of 2.15 and a Ki [4] of 1.33 nM.
In the case of CCNC(=O)c1nc2n(n1)-c1ccc(Cl)c(Cl)c1C(c1c(F)cccc1F)=N[C@H]2C [Example 64, (4S)-7,8-dichloro-6-(2,6-difluorophenyl)-N-ethyl-4-methyl-4H-[1,2,4]triazolo[1,5-a][1,4]benzodiazepine-2-carboxamide], the Ki [1, 5] is reported as 5.4 nM, the Ki [1, 6] is reported as 5.4 nM and the “Efficacy (GABA)%” value [2] is reported as 75%. For the same compound, the “Fold increase h-GABA-A α2β2γ1 oocyte @ 30-fold Ki” value [2] was 1.75, the Ki [3] was 889 nM and the “γ2/γ1 Selectivity Ratio” value [3] was 165.6. The LogSel [3] was 2.22 and the Ki [4] was 1.16 nM.
